The supplement of paper PMC10307832

How the values were obtained:
Experiment in all cases: relative viability (nuclei count vs DMSO), 5 days (fraction); higher = more cells survive
TGX 221 + Phenformin = compound: CC1=CN2C(=O)C=C(N=C2C(=C1)C(C)NC3=CC=CC=C3)N4CCOCC4 [TGX 221] + N=C(N)NC(=N)NCCc1ccccc1 [Phenformin] (partner 250 µM)
Summary of the method: (§1)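 Nuclei were stained with Hoechst during a one-step fixation (final 0.05% Triton X-100, 1% formaldehyde, 1 ug/ml Hoechst) carried out 5 days after dosing, then counted on 4× images. The cells, lung cancer lines in 1536-well plates, had been dosed by pin tool the day after seeding with one drug alone or a fixed anchor-drug dose plus five library-drug doses (not always all listed) in √10 steps. Relative viability is the nuclei count in treated wells divided by that in vehicle wells, and each value is the median of duplicate plates.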

[1] = compound: O=C(CCCCCCNC(=O)c1cnc(N(c2ccccc2)c2ccccc2)nc1)NO [Ricolinostat] + Nc1ncn([C@H]2C[C@H](O)[C@@H](CO)O2)c(=O)n1 [Decitabine] (partner 2 µM)
Summary of the method: as §1

TGX 221 + Dasatinib = compound: CC1=CN2C(=O)C=C(N=C2C(=C1)C(C)NC3=CC=CC=C3)N4CCOCC4 [TGX 221] + Cc1nc(Nc2ncc(C(=O)Nc3c(C)cccc3Cl)s2)cc(N2CCN(CCO)CC2)n1 [Dasatinib] (partner 0.075 µM)
Summary of the method: as §1

TGX 221 + AZD7762 = compound: CC1=CN2C(=O)C=C(N=C2C(=C1)C(C)NC3=CC=CC=C3)N4CCOCC4 [TGX 221] + NC(=O)Nc1cc(-c2cccc(F)c2)sc1C(=O)N[C@H]1CCCNC1 [AZD7762] (partner 0.2 µM)
Summary of the method: as §1

Cell Line | relative viability (TGX 221 + Phenformin; first compound 0.08 µM) | relative viability (TGX 221 + Phenformin; first compound 0.253 µM) | relative viability (TGX 221 + Phenformin; first compound 0.8 µM) | relative viability (TGX 221 + Phenformin; first compound 2.53 µM) | relative viability (TGX 221 + Phenformin; first compound 8 µM) | relative viability ([1]; first compound 0.08 µM) | relative viability ([1]; first compound 0.253 µM) | relative viability ([1]; first compound 0.8 µM) | relative viability ([1]; first compound 2.53 µM) | relative viability (TGX 221 + Dasatinib; first compound 0.08 µM) | relative viability (TGX 221 + Dasatinib; first compound 0.253 µM) | relative viability (TGX 221 + Dasatinib; first compound 0.8 µM) | relative viability (TGX 221 + Dasatinib; first compound 2.53 µM) | relative viability (TGX 221 + Dasatinib; first compound 8 µM) | relative viability (TGX 221 + AZD7762; first compound 0.08 µM) | relative viability (TGX 221 + AZD7762; first compound 0.253 µM) | relative viability (TGX 221 + AZD7762; first compound 0.8 µM) | relative viability (TGX 221 + AZD7762; first compound 2.53 µM) | relative viability (TGX 221 + AZD7762; first compound 8 µM)
201T | 0.459 | 0.436 | 0.428 | 0.434 | 0.439 | 0.843 | 0.847 | 0.873 | 0.887 | 0.596 | 0.584 | 0.54 | 0.508 | 0.541 | 0.55 | 0.685 | 0.611 | 0.615 | 0.569
A549 | 0.198 | 0.138 | 0.185 | 0.209 | 0.152 | 0.314 | 0.259 | 0.306 | 0.246 |  |  |  |  |  |  |  |  |  | 
A-427 | 0.341 | 0.297 | 0.307 | 0.39 | 0.326 | 0.547 | 0.591 | 0.559 | 0.558 | 0.696 | 0.735 | 0.671 | 0.657 | 0.692 | 0.728 | 0.712 | 0.8 | 0.762 | 0.698
ABC-1 | 0.228 | 0.228 | 0.19 | 0.217 | 0.253 | 0.829 | 1.03 | 0.989 | 1.03 | 0.531 | 0.569 | 0.682 | 0.472 | 0.577 | 0.859 | 0.908 | 0.743 | 0.749 | 1.08
BEN | 0.24 | 0.257 | 0.273 | 0.27 | 0.265 | 0.578 | 0.78 | 0.567 | 0.581 | 0.385 | 0.266 | 0.317 | 0.328 | 0.293 | 0.639 | 0.695 | 0.737 | 0.697 | 0.661
CAL-12T | 0.629 | 0.55 | 0.62 | 0.56 | 0.661 |  |  |  |  | 0.365 | 0.34 | 0.383 | 0.31 | 0.373 | 0.637 | 0.656 | 0.542 | 0.577 | 0.666
COR-L23 | 0.436 | 0.4 | 0.445 | 0.485 | 0.457 | 0.402 | 0.493 | 0.358 | 0.332 | 0.483 | 0.457 | 0.538 | 0.488 | 0.431 |  |  |  |  | 
COR-L 105 | 0.514 | 0.45 | 0.569 | 0.572 | 0.412 | 0.675 | 0.65 | 0.7 | 0.669 | 0.286 | 0.252 | 0.264 | 0.406 | 0.23 |  |  |  |  | 
ChaGo-K-1 | 0.479 | 0.512 | 0.481 | 0.456 | 0.494 | 0.58 | 0.495 | 0.51 | 0.509 | 0.548 | 0.536 | 0.615 | 0.494 | 0.575 | 0.922 | 0.826 | 0.873 | 0.827 | 0.838
EKVX | 0.213 | 0.225 | 0.232 | 0.22 | 0.221 | 0.31 | 0.322 | 0.299 | 0.346 | 0.399 | 0.523 | 0.432 | 0.493 | 0.365 | 0.685 | 0.607 | 0.601 | 0.579 | 0.594
EMC-BAC-2 | 0.528 | 0.508 | 0.506 | 0.499 | 0.519 | 0.796 | 0.938 | 0.901 | 0.722 | 0.279 | 0.306 | 0.321 | 0.315 | 0.351 | 1.06 | 1.05 | 1.13 | 1.07 | 0.992
EPLC-272H | 0.298 | 0.275 | 0.291 | 0.269 | 0.27 |  | 0.36 | 0.368 | 0.325 | 0.392 | 0.29 | 0.351 | 0.302 | 0.287 | 0.24 | 0.222 | 0.161 | 0.171 | 0.197
H3255 | 0.369 | 0.382 | 0.326 | 0.374 | 0.354 | 0.522 | 0.598 | 0.538 | 0.426 | 0.257 | 0.417 | 0.355 | 0.307 | 0.342 | 0.766 | 0.907 | 0.932 | 0.822 | 0.71
HARA | 0.563 | 0.422 | 0.426 | 0.424 | 0.543 | 0.335 | 0.408 | 0.464 | 0.405 | 0.207 | 0.254 | 0.289 | 0.26 | 0.315 | 0.464 | 0.38 | 0.513 | 0.519 | 0.274
HCC-15 | 0.482 | 0.471 | 0.483 | 0.451 | 0.497 | 0.593 | 0.687 | 0.631 | 0.464 | 0.595 | 0.575 | 0.657 | 0.564 | 0.608 | 1.1 | 1.02 | 0.673 | 1.21 | 1.13
HCC-44 | 0.157 | 0.212 | 0.212 | 0.201 | 0.177 | 1 | 0.948 | 0.926 | 0.951 |  |  |  |  |  | 0.992 | 1.04 | 1.02 | 1.1 | 1.09
HCC-78 | 0.675 | 0.641 | 0.533 | 0.558 | 0.604 |  | 0.7 | 0.602 | 0.585 | 0.405 | 0.324 | 0.231 | 0.235 | 0.246 | 0.483 | 0.697 | 0.55 | 0.545 | 0.507
HCC-366 | 0.617 | 0.575 | 0.642 | 0.572 | 0.613 | 0.332 | 0.344 | 0.342 | 0.329 | 0.693 | 0.606 | 0.639 | 0.586 | 0.55 | 0.325 | 0.202 | 0.242 | 0.0941 | 0.146
HCC-827 | 0.386 | 0.4 | 0.344 | 0.359 | 0.334 | 0.32 | 0.327 | 0.233 | 0.274 | 0.28 | 0.296 | 0.387 | 0.273 | 0.15 | 0.197 | 0.269 | 0.233 | 0.201 | 0.148
